≈ marks a conversion by molar mass, not a printed value. Where “and” joins values, the source holds several entries; their conditions need not be identical. Equal entries are not always repeated.
What was measured:
Test in all cases: ≥ marks a high value that may be exact or a test limit, other limits are often not marked, values filed in µg/mL are converted to µM
[1] = system: Staphylococcus aureus ATCC 2576
[2] = system: Candida albicans ATCC 3007
[3] = system: Escherichia coli ATCC 25629
Shigella dysenteriae = system: Shigella dysenteriae
[4] = system: Shigella dysenteriae ATCC 2932
Staphylococcus aureus = system: Staphylococcus aureus
Escherichia coli = system: Escherichia coli
[5] = system: Vibrio parahaemolyticus BCRC 10806
[6] = system: Listeria monocytogenes BCRC 14845
[7] = system: Pseudomonas aeruginosa BCRC 10944
[8] = system: Enterobacter cloacae BCRC 10401
[9] = system: Vibrio anguillarum serotype O1
[10] = system: Yersinia enterocolitica BCRC 13999
Streptococcus iniae = system: Streptococcus iniae
Vibrio harveyi = system: Vibrio harveyi
Lactococcus garvieae = system: Lactococcus garvieae
[11] = system: Staphylococcus aureus BCRC 10781
[12] = system: Streptococcus equinus BCRC 14729
[13] = system: Klebsiella aerogenes BCRC 10370
[14] = system: Vibrio alginolyticus BCRC 12829
[15] = system: Staphylococcus xylosus BCRC 12930
[16] = system: Staphylococcus aureus BCRC 10780
Vibrio parahaemolyticus = system: Vibrio parahaemolyticus
Vibrio alginolyticus = system: Vibrio alginolyticus
[17] = system: Escherichia coli BCRC 10675
[18] = system: Klebsiella oxytoca BCRC 13985
[19] = system: Candida albicans ATCC 90028
[20] = system: Staphylococcus aureus ATCC 25923
[21] = system: Klebsiella pneumoniae ATCC 700603
[22] = system: Staphylococcus aureus NCTC 8325
[23] = system: Escherichia coli ATCC 25922
[24] = system: Acinetobacter baumannii I NM8
[25] = system: Escherichia coli ATCC 25726
[26] = system: Pseudomonas aeruginosa ATCC 27853
[27] = system: Salmonella enterica subsp. enterica serovar Typhimurium ATCC 14028
Streptococcus agalactiae = system: Streptococcus agalactiae
Escherichia coli ML-35 = system: Escherichia coli ML-35
[28] = system: Escherichia coli O18:K1:H7 Bort
[29] = system: Staphylococcus epidermidis KCTC 1917
Serratia marcescens = system: Serratia marcescens
[30] = system: Bacillus subtilis KCTC 3068
Escherichia coli D21 = system: Escherichia coli D21
Enterococcus faecium = system: Enterococcus faecium
Cryptococcus neoformans = system: Cryptococcus neoformans
[31] = system: Serratia marcescens ATCC 8100
Candida albicans = system: Candida albicans
[32] = system: Staphylococcus aureus KCTC 1621
[33] = system: Pseudomonas aeruginosa KCTC 1637
[34] = system: Staphylococcus epidermidis ATCC 12228
[35] = system: Salmonella typhimurium KCTC 1926
[36] = system: Escherichia coli KCTC 1682
Bacillus megaterium Bm11 = system: Bacillus megaterium Bm11
[37] = system: Staphylococcus aureus Cowan 1

CSCC[C@H](NC(=O)[C@H](CCCCN)NC(=O)[C@@H]1CCCN1C(=O)[C@H](CC(C)C)NC(=O)[C@@H](N)Cc1ccccc1)C(=O)N[C@@H](CO)C(=O)N[C@H](C(=O)N[C@@H](CCCCN)C(=O)N[C@@H](CC(C)C)C(=O)N[C@@H](CCCN=C(N)N)C(=O)N[C@H](C(=O)N1CCC[C@H]1C(=O)N[C@@H](Cc1ccc(O)cc1)C(=O)N[C@@H](CCCN=C(N)N)C(=O)N[C@@H](CCCN=C(N)N)C(=O)NCC(=O)N[C@H](C(=O)N[C@@H](CCCCN)C(=O)N[C@@H](CC(=O)O)C(=O)N[C@@H](Cc1ccc(O)cc1)C(=O)N[C@@H](Cc1cnc[nH]1)C(=O)O)[C@@H](C)O)C(C)C)[C@@H](C)O [FLPKMSTKLRVPYRRGTKDYH]
MIC [1]: 0.463 µM (≈ 1.2 µg/mL) | MIC [2]: 5.78 µM (≈ 15 µg/mL) | MIC [3]: 4.82 µM (≈ 12.5 µg/mL) | MIC (Shigella dysenteriae): 2.89 µM (≈ 7.5 µg/mL) | MIC [4]: 2.89 µM (≈ 7.5 µg/mL) | MIC (Staphylococcus aureus): 1.93 µM (≈ 5 µg/mL) | MIC (Escherichia coli): 5.78 µM (≈ 15 µg/mL)

CC[C@H](C)[C@H](NC(=O)[C@@H](NC(=O)[C@H](CCCCN)NC(=O)[C@H](Cc1ccc(O)cc1)NC(=O)[C@H](Cc1ccccc1)NC(=O)[C@H](CCCCN)NC(=O)[C@@H](NC(=O)[C@H](Cc1ccccc1)NC(=O)[C@H](C)NC(=O)[C@@H](NC(=O)[C@H](C)NC(=O)[C@H](C)NC(=O)[C@H](CCCCN)NC(=O)[C@@H](NC(=O)[C@H](CC(C)C)NC(=O)[C@H](C)NC(=O)[C@H](CCCCN)NC(=O)[C@H](C)NC(=O)CN)[C@@H](C)O)[C@@H](C)O)[C@@H](C)O)[C@@H](C)O)C(=O)N[C@@H](Cc1c[nH]c2ccccc12)C(=O)O [GAKALTKAATAFTKFYKTIW]
MIC [5]: ≥ 57.7 µM | MIC [6]: 28.9 µM (≈ 64 µg/mL) | MIC [7]: 28.9 µM (≈ 64 µg/mL) | MIC [8]: 7.21 µM (≈ 16 µg/mL) | MIC [9]: 28.9 µM (≈ 64 µg/mL) | MIC [10]: ≥ 57.7 µM | MIC (Streptococcus iniae): ≥ 57.7 µM | MIC (Vibrio harveyi): 28.9 µM (≈ 64 µg/mL) | MIC (Lactococcus garvieae): ≥ 57.7 µM | MIC [11]: ≥ 57.7 µM | MIC [12]: ≥ 57.7 µM | MIC [13]: 7.21 µM (≈ 16 µg/mL) | MIC [14]: ≥ 57.7 µM | MIC [15]: 28.9 µM (≈ 64 µg/mL) | MIC [16]: ≥ 57.7 µM | MIC (Vibrio parahaemolyticus): 14.4 µM (≈ 32 µg/mL) | MIC (Vibrio alginolyticus): 14.4 µM (≈ 32 µg/mL) | MIC [17]: 7.21 µM (≈ 16 µg/mL) | MIC [18]: 7.21 µM (≈ 16 µg/mL)

CC[C@H](C)[C@H](NC(=O)[C@@H](NC(=O)[C@H](C)NC(=O)[C@H](CCCCN)NC(=O)[C@H](C)NC(=O)[C@@H](NC(=O)[C@H](CCCCN)NC(=O)CNC(=O)[C@H](CC(C)C)NC(=O)[C@H](C)NC(=O)[C@@H](NC(=O)CNC(=O)[C@H](C)NC(=O)[C@H](CCCCN)NC(=O)[C@@H](NC(=O)[C@H](C)NC(=O)[C@H](CCSC)NC(=O)CN)[C@@H](C)O)[C@@H](C)O)C(C)C)C(C)C)C(=O)NCC(=O)N[C@@H](C)C(=O)N[C@@H](C)C(=O)N[C@@H](CC(C)C)C(N)=O [GMATKAGTALGKVAKAVIGAAL]
MIC [19]: ≥ 100 µM | MIC [20]: 160 µM and 100 µM | MIC [21]: > 50 µM | MIC [22]: ≥ 100 µM | MIC [23]: > 100 µM | MIC [24]: 25 µM (≈ 50 µg/mL) | MIC [25]: ≥ 100 µM

CC[C@H](C)[C@H](NC(=O)[C@@H](NC(=O)[C@@H]1CCCN1C(=O)[C@H](CO)NC(=O)[C@H](CC(C)C)NC(=O)[C@H](CCCCN)NC(=O)[C@H](CCCCN)NC(=O)[C@H](Cc1ccccc1)NC(=O)[C@H](CC(C)C)NC(=O)[C@H](CCCCN)NC(=O)[C@H](CCCCN)NC(=O)[C@H](Cc1ccccc1)NC(=O)[C@H](CCCCN)NC(=O)[C@H](CCCCN)NC(=O)[C@H](CCCN=C(N)N)NC(=O)[C@H](Cc1ccccc1)NC(=O)[C@H](CCCN=C(N)N)NC(=O)[C@H](CCCCN)NC(=O)[C@H](Cc1ccccc1)NC(=O)[C@H](CCCN=C(N)N)NC(=O)CN)C(C)C)C(=O)N1CCC[C@H]1C(=O)N[C@@H](CC(C)C)C(=O)N[C@@H](CC(C)C)C(=O)N[C@@H](Cc1cnc[nH]1)C(=O)N[C@@H](CC(C)C)C(=O)NCC(N)=O [GRFKRFRKKFKKLFKKLSPVIPLLHLG]
MIC [20]: 2 µM (≈ 6.56 µg/mL) | MIC [26]: 1 µM (≈ 3.28 µg/mL) | MIC [27]: 1 µM (≈ 3.28 µg/mL) | MIC (Streptococcus agalactiae): 2.83 µM (≈ 9.28 µg/mL) | MIC (Escherichia coli ML-35): 1 µM (≈ 3.28 µg/mL) | MIC [28]: 0.5 µM (≈ 1.64 µg/mL) | MIC (Staphylococcus aureus): 4 µM (≈ 13.1 µg/mL) | MIC [23]: 1 µM (≈ 3.28 µg/mL) | MIC [29]: 2 µM (≈ 6.56 µg/mL) | MIC (Serratia marcescens): 2.83 µM (≈ 9.28 µg/mL) | MIC [30]: 2 µM (≈ 6.56 µg/mL) | MIC (Escherichia coli D21): 0.25 µM (≈ 0.821 µg/mL) | MIC (Enterococcus faecium): 5.66 µM (≈ 18.6 µg/mL) | MIC (Cryptococcus neoformans): 4 µM (≈ 13.1 µg/mL) | MIC [31]: 2 µM (≈ 6.56 µg/mL) | MIC (Candida albicans): 8 µM (≈ 26.3 µg/mL) | MIC [32]: 4 µM (≈ 13.1 µg/mL) | MIC [33]: 2 µM (≈ 6.56 µg/mL) | MIC [34]: 1 µM (≈ 3.28 µg/mL) | MIC [35]: 1 µM (≈ 3.28 µg/mL) | MIC [36]: 4 µM (≈ 13.1 µg/mL) | MIC (Bacillus megaterium Bm11): 2 µM (≈ 6.56 µg/mL) | MIC [37]: 2 µM (≈ 6.56 µg/mL)

Reference: DBAASP
